Assay results from article PMC9081605, “A High-Throughput Toxicity Screen of 42 Per- and Polyfluoroalkyl Substances (PFAS) and Functional Assessment of Migration and Gene Expression in Human Placental Trophoblast Cells” (Frontiers in Toxicology, 2022).
“Also recorded” adds a separate entry of the source.

Legend:
Format in all cases: cell-based, human
JEG-3 cells [1] = assay: CellTiter-Glo luminescent cell viability assay (HTTS)
Outline: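 JEG-3 cells (2,500/well) adhered overnight, then exposed 24 h to PFAS (methanol stocks; vehicle 2.5% methanol, top concentration 500 µM). Viability read by CellTiter-Glo ATP luminescence in the same wells as mitochondrial membrane potential; wells with 0 h confluence <20% or >80% excluded.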

JEG-3 cells [2] = assay: Proliferation, change in confluence 0-24 h (IncuCyte Zoom, HTTS)
Outline: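 Confluence measured by automated image masking at 0 h and 24 h after dosing; proliferation = 24 h minus baseline confluence. JEG-3 seeded at 2,500 cells/well, ~30–50% baseline confluence, exposed 24 h to PFAS up to 500 µM in medium with 2.5% methanol vehicle; 37°C, 5% CO2.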

JEG-3 cells [3] = assay: Mitochondrial membrane potential, JC-10 assay (HTTS)
Outline: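 JEG-3 cells seeded at 2,500 per well were exposed to PFAS for 24 h at 37 °C, with 2.5% methanol vehicle. After a PBS wash, 20 μM JC-10 was added for 1 h at 37 °C. Membrane potential was taken as the green (490/525 nm) to red (540/590 nm) fluorescence ratio.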

JEG-3 cells [4] = assay: Phase contrast live cell images, cell death (positive control); conditions: 24 h
Protocol: A total of 42 perfluoroalkyl substances (PFAS) were evaluated (Supplementary Table S1 contains source and purity). PFAS stock solutions were maintained in 100% methanol as previous work has shown certain PFAS degrade when stored in dimethyl sulfoxide (DMSO; [Gaballah et al., 2020]). […] The vehicle control group consisted of 97.5% media + 2.5% methanol to match the concentration of methanol in the media at the highest PFAS concentration tested (500 µM). Menadione (50–500 µM) was used as a positive control for cytotoxicity assessment. PFAS were de-identified and assigned random numbers to eliminate bias. Chemical exposure plate maps were designed so that all experimental conditions were tested in at least technical duplicates per plate. The outer edges of each plate received media alone and were excluded from all analyses to avoid edge effects. Each plate map included 14 technical replicates of the vehicle control group and 14 technical replicates of media only. Biological replicates were defined as separate 384 well plates tested on separate days using different cell passages. The experimental workflow is depicted in Supplementary Figure S1.
JEG-3 cells were counted using a Z2 Coulter Particle Counter (Beckman Coulter, CA, United States) and seeded at a density of 2,500 cells per well in black-walled, clear bottom 384 well plates (Corning, #3764) and allowed to adhere overnight. Approximately 24 h later, 384 well plates were imaged using an IncuCyte Zoom live cell imager (Essen BioScience Inc., MI, United States) to obtain baseline cellular confluence measurements prior to chemical dosing (0 h). Media was removed from wells and replaced with fresh media containing chemical treatments (exposure media) using a Viaflo liquid handling device (Integra Biosciences, NH, United States). Within 30 min of exposure media application, plates were again imaged for cellular confluence using the IncuCyte Zoom. Plates were incubated with exposure media for 24 h and then imaged again using the IncuCyte Zoom (24 h).

JEG-3 cells [5] = assay: Scratch wound migration assay; conditions: after 24 h of exposure, 25-200 µM
Protocol: JEG-3 cells were cultured as described in Cell Culture section, and six PFAS were evaluated across an 8-point linear concentration curve ranging from 25 to 200 µM (25 µM steps): PFOA (335-67-1), GenX (62037-80-3), PFOS (1763-23-1), perfluorooctanesulfonamide (PFOSA, 754-91-6), perfluorooctanamide (PFOAA, 423-54-1), and perfluorononanoic acid (PFNA, 375-95-1). The vehicle control group consisted of 98% media + 2% methanol to match the concentration of methanol in the media at the highest PFAS concentration tested (200 µM). Cadmium chloride (25 µM) was used as a positive control for cytotoxicity ([Brooks and Fry, 2017]). Chemical exposure plate maps were designed so that all experimental conditions were tested in at least technical duplicates per plate. The outer edges of each plate received media alone and were excluded from all analyses to avoid edge effects. JEG-3 cells were counted and seeded at a density of 80,000 cells per well in black-walled, clear bottom 96-well plates (Corning #CLS3603, Millipore Sigma) and allowed to adhere and grow for 36 h. After approximately 36 h, 96-well plates were imaged on the IncuCyte Zoom to obtain cellular confluence measurements prior to chemical dosing (0 h). Media was then removed from wells and replaced with fresh serum-free media containing chemical treatments (serum-free exposure media) using the Viaflo liquid handling device. After 1 h of treatment with serum-free exposure media, plates were again imaged for cellular confluence using the IncuCyte Zoom. Serum-free exposure media was then removed from wells and wells were scratched by dragging a 200 µl pipette tip from top to bottom of each well, changing tips every well. Fresh media containing serum and chemical treatments (exposure media) was added to plates using a liquid handling device and allowed to grow for 72 h, with imaging via the IncuCyte Zoom every 6 h.
Plate well bottom images were evaluated using automated cell masking as described in Proliferation section. Cell migration was calculated as the change in cellular confluence from the baseline measurement obtained immediately post-scratch to each subsequent time point (24, 48, and 72 h, post-scratch).
Raw migration assay data exported from IncuCyte software were analyzed using GraphPad Prism 8.0 (GraphPad Software, San Diego, CA)). Prior to analysis, a minimum starting confluence value of 70% was set to ensure comparisons between samples were not skewed. Images with a starting confluence of less than 70% were excluded from analysis. Statistical analysis was performed using multiple unpaired t-tests to compare treated groups to the vehicle control followed by post hoc correction for multiple tests using the Bonferroni-Dunn method. Concentration-response analysis to determine migration assay EC50s was attempted but was not able to be modeled due to the non-linear nature of the concentration-response relationship for this endpoint.

[6] = after 24 h, in at least one concentration
[7] = Homo sapiens, JEG-3, 24 h, read-out: Proliferation EC50 ± SD, JEG-3 cells, 24 h exposure, four-parameter fit, estimates meeting inclusion criteria

Row | Compound | EC50 (JEG-3 cells [1]; Homo sapiens, JEG-3, 24 h, read-out: Viability EC50 ± SD, JEG-3 cells, 24 h exposure, four-parameter fit, estimates meeting inclusion criteria) [µM] | cell viability relative to vehicle control (rough binning) (JEG-3 cells [1]; [6]) | minimal effective concentration (JEG-3 cells [2]; Homo sapiens, JEG-3, 24 h, read-out: Prolif ↓, lowest concentration at which the mean response value exceeded the mean control value ± 2*SD (rough binning)) [µM] | EC50 (JEG-3 cells [2]; [7]) [µM] | cellular proliferation relative to vehicle control (rough binning) (JEG-3 cells [2]; [6]) | minimal effective concentration (JEG-3 cells [3]; Homo sapiens, JEG-3, 24 h, read-out: MMP ↓, lowest concentration at which the mean response value exceeded the mean control value ± 2*SD (rough binning)) [µM] | MMP relative to vehicle control (rough binning) (JEG-3 cells [3]; [6]) | cytotoxicity / cell death (JEG-3 cells [4]; 100 µM) | cell death (JEG-3 cells [4]; 150 µM) | concentration that promoted cell death (JEG-3 cells [4]) [µM] | EC50 (JEG-3 cells [2]; Homo sapiens, JEG-3, 24 h, read-out: proliferation EC50 ± SE, JEG-3 cells, 24 h) [µM] | EC50 (JEG-3 cells [2]; Homo sapiens, JEG-3, read-out: Proliferation EC50 ± SD (raw values), JEG-3 cells, raw model output including fits that did not meet inclusion criteria) [µM] | EC50 (JEG-3 cells [3]; Homo sapiens, JEG-3, 24 h, read-out: MMP EC50 ± SD, JEG-3 cells, 24 h exposure, four-parameter fit, estimates meeting inclusion criteria) [µM] | cellular migration relative to vehicle control (JEG-3 cells [5])
1 | CC1=CC(=O)c2ccccc2C1=O [Menadione, reference compound] | 206 ± 47.1 | reduced cell viability | 150 | 157 ± 21.4 | reduced proliferation | 300 | reduced MMP | minimal cell death; also recorded: not cytotoxic | Complete cell death | ≥ 150 | – | – | – | –
2 | NC(=O)C(F)(F)C(F)(F)C(F)(F)C(F)(F)C(F)(F)C(F)(F)C(F)(F)F [Perfluorooctanamide] | – | – | – | 114 | – | – | – | – | – | – | 114 ± 35.6 | 114 ± 35.6 | 295 ± 66.1 | significantly reduced
